Experimental data: PMC7280531, “A PROTAC peptide induces durable β-catenin degradation and suppresses Wnt-dependent intestinal cancer” (Cell Discovery, 2020)
Where a SMILES comes first, the peptide text is derived from it. Bridges are numbered along the chain shown (N, C = ends). [ ]: non-standard residue; d: D form. S5 = C=CCCC[C@](C)(N)C(=O)O; Ahx = NCCCCCC(=O)O

What was measured:
wild-type organoids = test: Wild-type mouse intestinal organoid culture; format: cell-based; details: 10 μM peptides
Procedure: Fig. 5 xStAx-VHLL inhibits the growth of wild-type and APC^−/− organoids. a Wild-type organoids were cultured with 10 μM peptides for 4 days. The trypan blue staining at day 4 indicated the dead organoids. Scale bar = 100 μm. […] Relative β-catenin and cleaved caspase3 protein levels were quantified. e Wild-type organoids were cultured with 10 μM peptides for 3 h and harvested for qPCR analysis of Wnt target genes. f APC^−/− organoids were cultured with 50 μM peptides for 4 days. The trypan blue staining at day 4 indicated the dead organoids. Scale bar = 100 μm. […] Relative β-catenin and cleaved caspase3 protein levels were quantified. The relative band intensity was quantified with ImageJ and normalized to GAPDH levels.
Mouse intestinal crypts isolation and organoid culture were performed as previously described. Briefly, mouse intestine was cut longitudinally and washed three times with cold PBS. Villi were carefully scraped away and small pieces (5 mm) of intestine were incubated in 0.5 M EDTA in PBS for 40 min on ice. These pieces were then vigorously suspended in cold PBS and the mixture was passed through 70 μm cell strainer (BD Biosciences). The crypt fraction was enriched through centrifugation (3 min at 300–400 g). Then the crypts were embedded in Matrigel (BD Biosciences) and seeded on 48-well or 24-well plates. The intestinal organoid culture medium consists of Advanced DMEM/F12 supplemented with Penicillin/Streptomycin, GlutaMAX-I, N2, B27 and N-acetylcysteine (Sigma-Aldrich) and combination of growth factors including EGF (50 ng/mL, Invitrogen), Noggin (100 ng/mL, R&D) and R-spondin1 (500 ng/mL). The organoids were treated with proper dilution of peptides in the medium.
Supplementary Fig. S7. xStAx-VHLL restricts Lgr5+ intestinal stem cell
population and cell viability in intestinal organoids.
The organoids derived from the small intestine of Lgr5-GFP mice were treated with
10 μM peptides for 36 h and then collected for CytoFLEX flow cytometry to count
Lgr5+ intestinal stem cells (a) or viable cells (b). Data from 3 independent
(1 picture or pasted object on this page, not shown here)

HCT116 cells = test: Cell proliferation assay (CCK-8), HCT116 cells; format: cell-based; details: 50 μM peptides, 6 days, cell number counted each day
Procedure: Equal number of cells (8000–10,000 cells) were seeded in the 24-well plates and then subjected to different treatments. The cell numbers were counted every 24 h with the CCK-8 cell counting kit (Dojindo Molecular Technologies) according to manufacturer’s instructions.

APC^−/− organoids = test: APC^−/− mouse intestinal organoid culture; format: cell-based
β-catenin [1] = target: T1, β-catenin (Homo sapiens, UniProt P35222); test: β-catenin immunoblotting / immunoprecipitation in HEK293T cells
T1 sequence (P35222 1-781): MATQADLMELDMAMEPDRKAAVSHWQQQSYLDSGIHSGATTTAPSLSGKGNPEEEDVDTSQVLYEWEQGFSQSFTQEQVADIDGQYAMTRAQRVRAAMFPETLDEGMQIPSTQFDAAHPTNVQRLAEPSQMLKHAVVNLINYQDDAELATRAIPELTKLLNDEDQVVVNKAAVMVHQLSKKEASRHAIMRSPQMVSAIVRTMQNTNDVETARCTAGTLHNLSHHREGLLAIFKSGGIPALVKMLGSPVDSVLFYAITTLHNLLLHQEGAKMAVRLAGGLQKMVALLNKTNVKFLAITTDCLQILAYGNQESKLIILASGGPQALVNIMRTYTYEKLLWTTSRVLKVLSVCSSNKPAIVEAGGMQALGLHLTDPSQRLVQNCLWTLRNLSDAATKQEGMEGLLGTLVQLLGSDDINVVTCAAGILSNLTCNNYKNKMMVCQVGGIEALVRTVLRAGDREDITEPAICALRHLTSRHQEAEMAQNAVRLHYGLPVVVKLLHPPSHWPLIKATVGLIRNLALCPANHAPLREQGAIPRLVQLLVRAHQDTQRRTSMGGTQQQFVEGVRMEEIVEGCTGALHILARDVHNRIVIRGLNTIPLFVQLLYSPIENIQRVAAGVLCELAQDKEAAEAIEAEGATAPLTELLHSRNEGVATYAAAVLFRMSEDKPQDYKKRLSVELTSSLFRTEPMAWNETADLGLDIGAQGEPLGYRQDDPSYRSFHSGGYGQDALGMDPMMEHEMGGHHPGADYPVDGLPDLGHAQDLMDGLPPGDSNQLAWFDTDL
Procedure: The relative band intensity was quantified with ImageJ and normalized to GAPDH.
For immunoprecipitation, the cells were lysed in TNE lysis buffer (50 mM Tris-HCl, pH 8.0, 150 mM NaCl, 1% Nonidet P-40, and protease inhibitor cocktail). […] After 18,000×g centrifugation for 10 min, the lysates were immunoprecipitated with specific antibody and protein A-Sepharose beads and then washed the beads with TNE buffer for three times before immunoblotting.

β-catenin [2] = test: β-catenin immunoblotting in colorectal cancer cells (HCT116, SW480, LoVo); format: cell-based; details: for β-catenin protein level, MSAB versus xStAx-VHLL: 50 μM xStAx-VHLL
Procedure: Relative
β-catenin protein level was quantified with ImageJ and normalized to GAPDH. Data […]
(b) LoVo cells were treated with 50 μM xStAx (xS), 50 μM
immunoblotting. (c, d) LoVo (c) and SW480 (d) cells were treated with different

Wnt/β-catenin signaling = test: Topflash luciferase reporter assay in HEK293T cells; format: cell-based; details: Wnt3a CM, 24 h
Procedure: Dual luciferase reporter assay system (Promega) was used. HEK293T cells, cultured in 24-well plates, were transfected with 200 ng Topflash plasmid and 30 ng Renilla plasmid for 3-well cells. […] Then harvested the cells for luciferase activity measurement.

[3] = Lgr5-GFP organoids, 36 h, flow cytometry
[4] = 50 μM peptides, 24 h, immunoblot

Question: What does the source list for `CC[C@H](C)[C@@H]1NC(=O)[C@@](C)(NC(=O)[C@H](CCCNC(=N)N)NC(=O)[C@@H]2CCCN2C(=O)[C@H](Cc2c[nH]c3ccccc23)NC(=O)[C@H](CCCNC(=N)N)NC(=O)[C@H](CCCNC(=N)N)NC(C)=O)CCCC=CCCC[C@@](C)(C(=O)N[C@@H](Cc2c[nH]cn2)C(=O)N[C@H](C(=O)N[C@@H](CCCNC(=N)N)C(=O)N[C@@H](CCCNC(=N)N)C(=O)N[C@H](C(=O)N[C@@H](Cc2c[nH]c3ccccc23)C(=O)N[C@@H](CCCNC(=N)N)C(=O)NCCCCCC(=O)N[C@@H](C)C(=O)N[C@@H](CC(C)C)C(=O)N[C@@H](C)C(=O)N2CCC[C@H]2C(=O)N[C@@H](Cc2ccc(O)cc2)C(=O)N[C@H](C(=O)N2CCC[C@H]2C(N)=O)[C@@H](C)CC)C(C)C)C(C)C)NC(=O)[C@H](CC(=O)O)NC(=O)[C@H](CC(C)C)NC1=O` [xStAx-VHLL] (Ac-RRWPR[S5]ILD[S5]HVRRVWR[Ahx]ALAPYIP-NH2; staple 6-10; N-terminus and C-terminus assumed)?
Answer: Wnt signaling target genes Lgr5, Axin2, Cyclin D1 and Myc (wild-type organoids; 3 h, qPCR): remarkably decreased; cleaved caspase 3 level (wild-type organoids; 24 h, immunoblot): increased the cleaved caspase 3 level; β-catenin protein level (wild-type organoids; 24 h, immunoblot): reduced the β-catenin protein level; organoid survival and bud formation (wild-type organoids; 4 days): obviously impeded organoid survival and bud formation; Lgr5+ intestinal stem cells (wild-type organoids; [3]): reduced; viable cell population (wild-type organoids; [3]): also decreased; proliferation of HCT116 cells (HCT116 cells): significantly attenuated the proliferation; APC^−/− organoid survival, MSAB versus xStAx-VHLL (APC^−/− organoids; 10 μM MSAB or 50 μM xStAx-VHLL, 4 days): strong inhibition; growth of APC^−/− organoids (APC^−/− organoids; 50 μM peptide, 4 days): significantly impeded the growth; cleaved caspase 3 (APC^−/− organoids; [4]): increased; β-catenin protein level (APC^−/− organoids; [4]): greatly decreased; expression of Wnt target genes Axin2, Cyclin D1 and Myc (APC^−/− organoids; qPCR): downregulated; β-catenin protein level, MSAB versus xStAx-VHLL (β-catenin [1]; 10 μM MSAB, 50 μM xStAx-VHLL (legend: 70 μM, Wnt3a CM), 24 h): decreased β-catenin protein to a comparable level; β-catenin ubiquitination (β-catenin [1]; 50 μM peptide 24 h, MG132 10 μM 12 h, IP and immunoblot): promoted β-catenin ubiquitination; time post treatment at which β-catenin degradation started (β-catenin [1]; 70 μM peptide and Wnt3a CM, immunoblot time course): 12 h; endogenous β-catenin protein level (β-catenin [1]; 70 μM peptide, 24 h, without Wnt3a, immunoblot): reduced the β-catenin level; β-catenin protein level in Wnt3a-treated cells (β-catenin [1]; 70 μM peptide, Wnt3a CM, 24 h, immunoblot, lower than xStAx): significantly downregulated β-catenin protein level; β-catenin level after wash-out of the drug (β-catenin [1]; MSAB 10 μM or xStAx-VHLL 70 μM 24 h, then fresh medium 24 or 48 h): durable degradation of β-catenin; dose dependence of β-catenin degradation (β-catenin [2]; CRC cells (HCT116, LoVo, SW480), indicated concentrations, 24 h): dose-dependent manner; β-catenin level after wash-out of the peptide (β-catenin [2]; HCT116, 50 μM peptide 24 h, then fresh medium 24 or 48 h): remained low after 24 h; β-catenin degradation in colorectal cancer cells (β-catenin [2]; HCT116, SW480 or LoVo, 50 μM peptides, 24 h, immunoblot): promotes the degradation of β-catenin; β-catenin protein level, MSAB versus xStAx-VHLL (β-catenin [2]; HCT116 and SW480, 10 μM MSAB, 24 h): decreased β-catenin protein to a comparable level; β-catenin protein level, MSAB versus xStAx-VHLL (β-catenin [2]; LoVo, 10 μM MSAB, 24 h): able to reduce the β-catenin protein level; inhibition of Wnt-induced Topflash-luciferase compared with small-molecule inhibitors (Wnt/β-catenin signaling; 70 μM xStAx-VHLL vs 10 μM XAV939, 20 μM PRI-724, 100 μM PNU-74654, 10 μM MSAB): comparable inhibition; dose dependence of effect on Wnt signaling (Topflash) (Wnt/β-catenin signaling; indicated concentrations): dose-dependent effect on Wnt signaling; Wnt3a-induced expression of the Topflash-luciferase reporter (Wnt/β-catenin signaling; peptides 70 μM each): more potent in decreasing the Wnt3a-induced expression of the reporter
